Test results: PubChem BioAssay (NCI)
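Five compound concentrations were applied to cells in 96-well plates for 48 hours; endpoints were derived by simple linear interpolation of the resulting dose-response curve. TGI marks complete inhibition of growth.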 Where a SMILES comes first, the peptide text is derived from it. [ ]: non-standard residue; d: D form. pGlu = O=C1CC[CH](C(=O)O)N1

Key:
Experiment in all cases: NCI tumour cell line growth inhibition, 48 h
[1] = system: 786-0 renal
[2] = system: A498 renal
[3] = system: CCRF-CEM leukemia
[4] = system: HCT-116 colon
[5] = system: HCT-15 colon
[6] = system: LOX IMVI melanoma
[7] = system: NCI-H226 lung
[8] = system: OVCAR-3 ovarian
[9] = system: PC-3 prostate
[10] = system: SK-MEL-5 melanoma
[11] = system: SW-620 colon
[12] = system: T-47D breast
[13] = system: TK-10 renal
[14] = system: U251 CNS

O=S(=O)(O)c1ccc(N=Nc2ccccc2)cc1
TGI [1]: > 100 µM
TGI [2]: > 100 µM
TGI [3]: > 100 µM
TGI [4]: > 100 µM
TGI [5]: > 100 µM
TGI [6]: > 100 µM
TGI [7]: > 100 µM
TGI [8]: > 100 µM
TGI [9]: > 100 µM
TGI [10]: > 100 µM
TGI [11]: > 100 µM
TGI [12]: > 100 µM
TGI [13]: > 100 µM
TGI [14]: > 100 µM

CC(NC(=O)C1CCC(=O)N1)C(=O)N1CCCC1C(N)=O (stereo not drawn) ([pGlu]-Ala-Pro-NH2; configuration not given here)
TGI [1]: > 100 µM
TGI [2]: > 100 µM
TGI [3]: > 100 µM
TGI [4]: > 100 µM
TGI [5]: > 100 µM
TGI [6]: > 100 µM
TGI [7]: > 100 µM
TGI [8]: > 100 µM
TGI [9]: > 100 µM
TGI [10]: > 100 µM
TGI [11]: > 100 µM
TGI [12]: > 100 µM
TGI [13]: > 100 µM
TGI [14]: > 100 µM

CN(C)Cc1cc(Cl)c(O)c(CN(C)C)c1
TGI [1]: > 100 µM
TGI [2]: > 100 µM
TGI [3]: > 100 µM
TGI [4]: > 100 µM
TGI [5]: > 100 µM
TGI [6]: > 100 µM
TGI [7]: > 100 µM
TGI [8]: > 100 µM
TGI [9]: > 100 µM
TGI [10]: > 100 µM
TGI [11]: > 100 µM
TGI [12]: > 100 µM
TGI [13]: > 100 µM
TGI [14]: > 100 µM

O=c1[nH]c(Nc2ccc(Br)c(C(F)(F)F)c2)nc2nc[nH]c12
TGI [1]: > 100 µM
TGI [2]: > 100 µM
TGI [3]: > 100 µM
TGI [4]: > 100 µM
TGI [5]: > 100 µM
TGI [6]: > 100 µM
TGI [7]: > 100 µM
TGI [8]: 87 µM
TGI [9]: > 100 µM
TGI [10]: 71.8 µM
TGI [11]: > 100 µM
TGI [12]: > 100 µM
TGI [13]: > 100 µM
TGI [14]: > 100 µM

O=C(Cc1ccc2ccccc2c1)NCc1ccc(C(=O)NCCc2ccccc2)cc1
TGI [1]: > 100 µM
TGI [2]: > 100 µM
TGI [3]: > 100 µM
TGI [4]: > 100 µM
TGI [5]: > 100 µM
TGI [6]: > 100 µM
TGI [7]: > 100 µM
TGI [8]: > 100 µM
TGI [9]: > 100 µM
TGI [10]: > 100 µM
TGI [11]: > 100 µM
TGI [12]: > 100 µM
TGI [13]: > 100 µM
TGI [14]: > 100 µM

CC(NC1=NCCO1)c1ccccc1Cl (stereo unspecified)
TGI [1]: > 100 µM
TGI [2]: > 100 µM
TGI [3]: > 100 µM
TGI [4]: > 100 µM
TGI [5]: > 100 µM
TGI [6]: > 100 µM
TGI [7]: > 100 µM
TGI [8]: > 100 µM
TGI [9]: > 100 µM
TGI [10]: > 100 µM
TGI [11]: > 100 µM
TGI [12]: > 100 µM
TGI [13]: > 100 µM
TGI [14]: > 100 µM

COC(=O)[C@H](Cc1ccccc1)NC(=O)c1ccc(CNC(=O)/C=C/c2ccc(OCc3ccccc3)cc2)cc1
TGI [1]: 19.1 µM
TGI [2]: 21.4 µM
TGI [3]: > 100 µM
TGI [4]: > 100 µM
TGI [5]: > 100 µM
TGI [6]: > 100 µM
TGI [7]: 49.8 µM
TGI [8]: 28.2 µM
TGI [9]: 43.8 µM
TGI [10]: 33.4 µM
TGI [11]: > 100 µM
TGI [12]: 72.2 µM
TGI [13]: 32 µM
TGI [14]: > 75.4 µM

COc1ccc(CCN2CCN(CCCc3ccccc3)CC2)cc1
TGI [1]: > 100 µM
TGI [2]: > 100 µM
TGI [3]: > 100 µM
TGI [4]: > 100 µM
TGI [5]: > 100 µM
TGI [6]: > 100 µM
TGI [7]: > 100 µM
TGI [8]: > 100 µM
TGI [9]: > 100 µM
TGI [10]: 56.9 µM
TGI [11]: > 100 µM
TGI [12]: > 100 µM
TGI [13]: > 100 µM
TGI [14]: > 100 µM

ClCc1nc2ccccc2[nH]1
TGI [1]: > 100 µM
TGI [2]: > 100 µM
TGI [3]: > 100 µM
TGI [4]: > 100 µM
TGI [5]: > 100 µM
TGI [6]: > 100 µM
TGI [7]: > 100 µM
TGI [8]: > 100 µM
TGI [9]: > 100 µM
TGI [10]: > 100 µM
TGI [11]: > 100 µM
TGI [12]: > 100 µM
TGI [13]: > 100 µM
TGI [14]: > 100 µM

NS(=O)(=O)c1ccc(NC(=O)N/N=C/c2ccccc2[N+](=O)[O-])cc1
TGI [1]: > 100 µM
TGI [2]: > 100 µM
TGI [3]: > 100 µM
TGI [4]: > 100 µM
TGI [5]: > 100 µM
TGI [6]: > 100 µM
TGI [7]: > 100 µM
TGI [8]: > 100 µM
TGI [9]: > 100 µM
TGI [10]: > 100 µM
TGI [11]: > 100 µM
TGI [12]: > 100 µM
TGI [13]: > 100 µM
TGI [14]: > 100 µM

Fc1cc(C2=Nn3c(COc4ccccc4Cl)nnc3S/C2=C\c2ccc(Cl)cc2)c(Cl)cc1Cl
TGI [1]: 26.5 µM
TGI [2]: 29.7 µM
TGI [3]: > 100 µM
TGI [4]: 26.1 µM
TGI [5]: 20.7 µM
TGI [6]: 25.2 µM
TGI [7]: > 100 µM
TGI [8]: 62 µM
TGI [9]: 68.9 µM
TGI [10]: 19 µM
TGI [11]: 39.9 µM
TGI [12]: > 100 µM
TGI [13]: > 100 µM
TGI [14]: 80.2 µM

Cc1ccc(S(=O)(=O)n2cc(C=O)c(-c3cn(S(=O)(=O)c4ccc(C)cc4)cc3-c3cn(S(=O)(=O)c4ccc(C)cc4)cc3C=O)c2)cc1
TGI [1]: > 100 µM
TGI [2]: > 100 µM
TGI [3]: > 100 µM
TGI [4]: > 100 µM
TGI [5]: > 100 µM
TGI [6]: 74.4 µM
TGI [7]: > 100 µM
TGI [8]: > 100 µM
TGI [9]: > 100 µM
TGI [10]: > 100 µM
TGI [11]: > 100 µM
TGI [12]: > 100 µM
TGI [13]: 72 µM
TGI [14]: > 100 µM

Cn1c(-c2ccc(C=O)o2)ccc1-c1ccc(C=O)o1
TGI [1]: > 100 µM
TGI [2]: > 100 µM
TGI [3]: > 100 µM
TGI [4]: 36.7 µM
TGI [5]: > 100 µM
TGI [6]: > 100 µM
TGI [7]: > 100 µM
TGI [8]: 81.2 µM
TGI [9]: > 100 µM
TGI [10]: > 100 µM
TGI [11]: > 100 µM
TGI [12]: > 100 µM
TGI [13]: > 100 µM
TGI [14]: > 100 µM

O=C(Nc1ccccc1)N(CCN(Cc1ccccc1)C(=O)Nc1ccccc1)CCN(Nc1ccccc1)C(=O)Nc1ccccc1
TGI [1]: > 100 µM
TGI [2]: > 100 µM
TGI [3]: > 100 µM
TGI [4]: > 100 µM
TGI [5]: > 100 µM
TGI [6]: > 100 µM
TGI [7]: > 100 µM
TGI [8]: > 100 µM
TGI [9]: > 100 µM
TGI [10]: > 100 µM
TGI [11]: > 100 µM
TGI [12]: > 100 µM
TGI [13]: > 100 µM
TGI [14]: > 100 µM
